Publication PMC9652372, “Glycolytic flux control by drugging phosphoglycolate phosphatase” (Nature Communications, 2022)
Where “and” joins values, the source holds several entries; their conditions need not be identical. Equal entries are not always repeated.

What was measured:
NT5C1A = target: T1, NT5C1A (Homo sapiens, UniProt Q9BXI3); experiment: In vitro phosphatase activity assay, NT5C1A (AMP); format: biochemical; settings: DMSO control = 100, read-out: NT5C1A activity on AMP in presence of CP relative to DMSO controls
T1 construct: purchased Origene #TP324617
T1 sequence (Q9BXI3 1-368): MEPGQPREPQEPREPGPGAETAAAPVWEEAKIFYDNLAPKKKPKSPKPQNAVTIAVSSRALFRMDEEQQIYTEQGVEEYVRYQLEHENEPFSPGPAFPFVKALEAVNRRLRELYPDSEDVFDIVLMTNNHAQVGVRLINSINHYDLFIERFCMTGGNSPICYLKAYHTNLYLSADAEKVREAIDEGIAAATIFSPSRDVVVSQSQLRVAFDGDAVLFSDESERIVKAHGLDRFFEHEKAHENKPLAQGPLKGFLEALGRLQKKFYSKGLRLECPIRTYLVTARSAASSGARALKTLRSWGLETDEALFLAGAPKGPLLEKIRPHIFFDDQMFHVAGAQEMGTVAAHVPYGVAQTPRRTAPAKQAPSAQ

murine PGP = target: T2, murine PGP (Mus musculus, UniProt Q8CHP8); experiment: SAR: CP1, CP2 and analogs on PGP phosphatase activity (PG); format: biochemical; set-up: His6 (N, cleaved yes); made in house; host or cells: Escherichia coli BL21 (DE3), pETM11, co-expressed with groES-groEL-tig
T2 sequence (Q8CHP8 1-321): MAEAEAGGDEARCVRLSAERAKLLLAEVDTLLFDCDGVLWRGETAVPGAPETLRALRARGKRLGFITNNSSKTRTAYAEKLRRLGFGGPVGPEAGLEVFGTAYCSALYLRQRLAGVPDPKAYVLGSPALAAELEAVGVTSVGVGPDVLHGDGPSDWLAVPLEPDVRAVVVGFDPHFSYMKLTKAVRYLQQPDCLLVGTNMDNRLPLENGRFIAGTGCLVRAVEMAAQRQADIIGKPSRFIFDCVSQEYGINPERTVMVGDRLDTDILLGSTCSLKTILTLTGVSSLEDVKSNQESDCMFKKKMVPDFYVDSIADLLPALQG

remaining activity at 50 µM (NT5C1A; CP log[M] -4.30103): 11.9%
remaining activity at 40 µM (NT5C1A; CP log[M] -4.39794): 20.5%
remaining activity at 30 µM (NT5C1A; CP log[M] -4.52288): 33.1%
remaining activity at 25 µM (NT5C1A; CP log[M] -4.60206): 45.1%
remaining activity at 20 µM (NT5C1A; CP log[M] -4.69897): 62.1%
remaining activity at 15 µM (NT5C1A; CP log[M] -4.82391): 69%
remaining activity at 10 µM (NT5C1A; CP log[M] -5): 74.2%
remaining activity at 5 µM (NT5C1A; CP log[M] -5.30103): 83.9%
remaining activity at […] (NT5C1A; CP log[M] -5.60206): 91.1%
inhibition of mPGP activity at 40 µM CP compared to DMSO control (%) (murine PGP; 40 µM CP, single experiments Exp #1-3): 91.3408% and 89.3401% and 90.1099%
remaining activity at 16 µM (murine PGP; CP log[M] -4.79588, read-out: mPGP activity in presence of CP relative to DMSO controls, mPGP on PG (norm.)): 20.6%
remaining activity at 4 µM (murine PGP; CP log[M] -5.39794, read-out: mPGP activity in presence of CP relative to DMSO controls, mPGP on PG (norm.)): 34.3%
remaining activity at 2 µM (murine PGP; CP log[M] -5.69897, read-out: mPGP activity in presence of CP relative to DMSO controls, mPGP on PG (norm.)): 51.6%
remaining activity at 1 µM (murine PGP; CP log[M] -6, read-out: mPGP activity in presence of CP relative to DMSO controls, mPGP on PG (norm.)): 67.7%
remaining activity at 0.5 µM (murine PGP; CP log[M] -6.30103, read-out: mPGP activity in presence of CP relative to DMSO controls, mPGP on PG (norm.)): 69%
remaining activity at […] (murine PGP; CP log[M] -6.60206, read-out: mPGP activity in presence of CP relative to DMSO controls, mPGP on PG (norm.)): 72.6%
remaining activity at 0.125 µM (murine PGP; CP log[M] -6.90309, read-out: mPGP activity in presence of CP relative to DMSO controls, mPGP on PG (norm.)): 81.8%
remaining activity at 0.0625 µM (murine PGP; CP log[M] -7.20412, read-out: mPGP activity in presence of CP relative to DMSO controls, mPGP on PG (norm.)): 84.3%
remaining activity at 0.015625 µM (murine PGP; CP log[M] -7.80618, read-out: mPGP activity in presence of CP relative to DMSO controls, mPGP on PG (norm.)): 96%
Compound: COc1ccc(C(=O)Nc2ccc(Cc3ccc(NC(=O)c4ccc(OC)c(OC)c4)c(C(=O)O)c3)cc2C(=O)O)cc1OC [CP2]
